Data from ChEMBL document CHEMBL4376834, “Discovery of 4H-Chromen-4-one Derivatives as a New Class of Selective Rho Kinase (ROCK) Inhibitors, which Showed Potent Activity in ex Vivo Diabetic Retinopathy Models” (J Med Chem, 2019).

Assays:
Aurora kinase B = Aurora kinase B (Homo sapiens, UniProt Q96GD4); test: Inhibition of recombinant full length human AURORA-B using AKRRRLSSLRA as substrate incubated for 40 mins in presence of [gamma-33P]ATP and 10 uM ATP by radiometric scintillation counting analysis
[1] = Protein binding in human plasma at 1 uM incubated incubated for 5 hrs under shaking conditions by LC-MS analysis; assay type: ADME, cell-free; settings: read-out: PPB (converted)
[2] = Intrinsic clearance in rat liver microsomes measured upto 45 mins in presence of NADPH by LC-MS analysis; assay type: ADME, Microsome; settings: read-out: CLH
CDC7/Cyclin B1 = CDC7/Cyclin B1 (Homo sapiens, UniProt O00311+P14635); test: Inhibition of recombinant full length human CDC7/CyclinB1 using Histone H1 as substrate incubated for 120 mins in presence of [gamma-33ATP] by radiometric scintillation counting analysis; assay type: protein-complex assay
[3] = target: Cyclin-dependent kinase-like 1 (Homo sapiens, UniProt Q00532); test: Inhibition of recombinant human CDKL1 (1 to 303 residues) using RRRFRPASPLRGP as substrate incubated for 120 mins in presence of [gamma-33ATP] by radiometric scintillation counting analysis
[4] = target: Dual specificity protein kinase CLK2 (Homo sapiens, UniProt P49760); test: Inhibition of recombinant human CLK2 (138 to end residues) using YRRAAVPPSPSLSR as substrate incubated 40 mins in presence of [gamma-33ATP] by radiometric scintillation counting analysis
[5] = target: Mast/stem cell growth factor receptor Kit (Homo sapiens, UniProt P10721, V560G); test: Inhibition of recombinant human C-Kit V560G mutant (544 to end residues) using poly(Glu, Tyr) 4:1 as substrate incubated 40 mins in presence of [gamma-33ATP] by radiometric scintillation counting analysis
[6] = target: Serine/threonine-protein kinase 38-like (Homo sapiens, UniProt Q9Y2H1); test: Inhibition of recombinant human NDR2 (83 to end residues) using RSRSRSRSRSRSRSR as substrate measured after 40 mins in presence of [gamma33P]ATP by radiometric scintillation counting analysis
[7] = target: Serine/threonine-protein kinase Nek6 (Homo sapiens, UniProt Q9HC98); test: Inhibition of recombinant human NEK6 (2 to end residues) using FLAKSFGSPNRAYKK as substrate measured after 40 mins in presence of [gamma33P]ATP by radiometric scintillation counting analysis
[8] = target: Serine/threonine-protein kinase NLK (Homo sapiens, UniProt Q9UBE8); test: Inhibition of recombinant human NLK (121 to end residues) using protein as substrate measured after 40 mins in presence of [gamma33P]ATP by radiometric scintillation counting analysis
[9] = target: Dual specificity mitogen-activated protein kinase kinase 6 (Homo sapiens, UniProt P52564); test: Inhibition of recombinant human MKK6 (4 to end residues) using SAPK2 as substrate incubated for 40 mins by radiometric scintillation counting analysis
[10] = target: Serine/threonine-protein kinase pim-1 (Homo sapiens, UniProt P11309); test: Inhibition of recombinant full length human Pim1 using KKRNRTLTV as substrate incubated for 40 mins in presence of [gamma33P]ATP by radiometric scintillation counting analysis
[11] = target: Platelet-derived growth factor receptor alpha (Homo sapiens, UniProt P16234); test: Inhibition of human PDGFRalpha (550 to end residues) using poly(Glu, Tyr) 4:1 as substrate measured after 40 mins in presence of [gamma33P]ATP by radiometric scintillation counting analysis
[12] = target: Serine/threonine-protein kinase MARK2 (Homo sapiens, UniProt Q7KZI7); test: Inhibition of recombinant full-length human PAR1Balpha using KKKVSRSGLYRSP as substrate measured after 40 mins in presence of [gamma33P]ATP by radiometric scintillation counting analysis
[13] = target: Serine/threonine-protein kinase PAK 4 (Homo sapiens, UniProt O96013); test: Inhibition of recombinant human PAK4 (295 to end residues) using myelin basic protein as substrate measured after 40 mins in presence of [gamma33P]ATP by radiometric scintillation counting analysis
[14] = target: Tyrosine-protein kinase Fer (Homo sapiens, UniProt P16591); test: Inhibition of recombinant human FER (541 to end residues) using KKKSPGEYVNIEF as substrate after 40 mins in presence of [gamma-33ATP] by radiometric scintillation counting analysis
Rhodopsin kinase GRK7 = Rhodopsin kinase GRK7 (Homo sapiens, UniProt Q8WTQ7); test: Inhibition of recombinant full length human GRK7 using casein as substrate after 40 mins in presence of [gamma-33ATP] by radiometric scintillation counting analysis
[15] = target: MAP kinase-activated protein kinase 3 (Homo sapiens, UniProt Q16644); test: Inhibition of recombinant human MAPKAPK3 (2 to end residues) using KKLNRTLSVA as substrate incubated for 40 mins in presence of [gamma-33ATP by radiometric scintillation counting analysis
[16] = target: Dual specificity mitogen-activated protein kinase kinase 2 (Homo sapiens, UniProt P36507); test: Inhibition of recombinant full length human MEK2 using MBP as substrate incubated for 40 mins in presence of [gamma-33ATP by radiometric scintillation counting analysis
[17] = target: Proto-oncogene tyrosine-protein kinase receptor Ret (Homo sapiens, UniProt P07949, V804M); test: Inhibition of recombinant human Ret V804M mutant (658 to end residues) using KKKVSRSGLYRSP as substrate incubated for 40 mins in presence of [gamma33P]ATP by radiometric scintillation counting analysis
[18] = target: Mitogen-activated protein kinase 14 (Homo sapiens, UniProt Q16539); test: Inhibition of recombinant human full length SAPK2a using myelin basic protein as substrate incubated for 40 mins in presence of [gamma33P]ATP by radiometric scintillation counting analysis
[19] = target: Mitogen-activated protein kinase 12 (Homo sapiens, UniProt P53778); test: Inhibition of recombinant human full length SAPK3 using myelin basic protein as substrate incubated for 40 mins in presence of [gamma33P]ATP by radiometric scintillation counting analysis
[20] = target: Serine/threonine-protein kinase SBK1 (Homo sapiens, UniProt Q52WX2); test: Inhibition of recombinant full-length human SBK1 using KKLRRTLSVA as substrate incubated for 120 mins in presence of [gamma33P]ATP by radiometric scintillation counting analysis
[21] = target: Serine/threonine-protein kinase 32B (Homo sapiens, UniProt Q9NY57); test: Inhibition of recombinant human full length STK32B using casein as substrate incubated for 40 mins in presence of [gamma33P]ATP by radiometric scintillation counting analysis
[22] = target: Mitogen-activated protein kinase kinase kinase 7 (Homo sapiens, UniProt O43318); test: Inhibition of recombinant human TAK1 (1 to 303 residues) using casein as substrate incubated for 40 mins in presence of [gamma33P]ATP by radiometric scintillation counting analysis
[23] = target: Tyrosine-protein kinase ZAP-70 (Homo sapiens, UniProt P43403); test: Inhibition of recombinant full length human ZAP70 using poly(Glu, Tyr) 4:1 as substrate incubated for 40 mins in presence of [gamma33P]ATP by radiometric scintillation counting analysis
Sequence of Tyrosine-protein kinase ZAP-70 (P43403 whole entry): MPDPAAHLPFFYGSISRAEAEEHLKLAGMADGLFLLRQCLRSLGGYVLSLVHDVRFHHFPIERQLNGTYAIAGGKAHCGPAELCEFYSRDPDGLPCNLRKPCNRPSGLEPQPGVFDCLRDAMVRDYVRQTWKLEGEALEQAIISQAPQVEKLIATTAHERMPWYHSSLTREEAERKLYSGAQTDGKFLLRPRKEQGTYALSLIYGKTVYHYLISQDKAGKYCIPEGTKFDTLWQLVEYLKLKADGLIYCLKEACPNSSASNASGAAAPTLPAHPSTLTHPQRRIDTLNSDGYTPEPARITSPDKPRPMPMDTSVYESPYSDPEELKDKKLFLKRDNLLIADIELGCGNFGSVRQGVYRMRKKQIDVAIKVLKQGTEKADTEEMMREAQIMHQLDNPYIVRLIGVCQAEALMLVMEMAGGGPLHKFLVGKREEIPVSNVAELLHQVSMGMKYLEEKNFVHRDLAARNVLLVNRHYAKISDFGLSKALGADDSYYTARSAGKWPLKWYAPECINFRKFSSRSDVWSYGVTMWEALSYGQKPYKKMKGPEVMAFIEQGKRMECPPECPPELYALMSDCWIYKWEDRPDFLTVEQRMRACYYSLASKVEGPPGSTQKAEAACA

Sequence of Serine/threonine-protein kinase Nek6 (Q9HC98 whole entry): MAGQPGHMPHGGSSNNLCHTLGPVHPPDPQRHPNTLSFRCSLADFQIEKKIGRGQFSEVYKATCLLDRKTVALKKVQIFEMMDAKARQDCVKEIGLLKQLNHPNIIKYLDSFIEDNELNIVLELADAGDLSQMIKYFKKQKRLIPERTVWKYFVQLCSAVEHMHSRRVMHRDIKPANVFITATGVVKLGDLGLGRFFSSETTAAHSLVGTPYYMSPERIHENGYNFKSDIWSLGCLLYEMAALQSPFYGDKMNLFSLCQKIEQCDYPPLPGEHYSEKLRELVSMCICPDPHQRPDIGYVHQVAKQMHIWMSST
Sequence of Serine/threonine-protein kinase MARK2 (Q7KZI7 whole entry): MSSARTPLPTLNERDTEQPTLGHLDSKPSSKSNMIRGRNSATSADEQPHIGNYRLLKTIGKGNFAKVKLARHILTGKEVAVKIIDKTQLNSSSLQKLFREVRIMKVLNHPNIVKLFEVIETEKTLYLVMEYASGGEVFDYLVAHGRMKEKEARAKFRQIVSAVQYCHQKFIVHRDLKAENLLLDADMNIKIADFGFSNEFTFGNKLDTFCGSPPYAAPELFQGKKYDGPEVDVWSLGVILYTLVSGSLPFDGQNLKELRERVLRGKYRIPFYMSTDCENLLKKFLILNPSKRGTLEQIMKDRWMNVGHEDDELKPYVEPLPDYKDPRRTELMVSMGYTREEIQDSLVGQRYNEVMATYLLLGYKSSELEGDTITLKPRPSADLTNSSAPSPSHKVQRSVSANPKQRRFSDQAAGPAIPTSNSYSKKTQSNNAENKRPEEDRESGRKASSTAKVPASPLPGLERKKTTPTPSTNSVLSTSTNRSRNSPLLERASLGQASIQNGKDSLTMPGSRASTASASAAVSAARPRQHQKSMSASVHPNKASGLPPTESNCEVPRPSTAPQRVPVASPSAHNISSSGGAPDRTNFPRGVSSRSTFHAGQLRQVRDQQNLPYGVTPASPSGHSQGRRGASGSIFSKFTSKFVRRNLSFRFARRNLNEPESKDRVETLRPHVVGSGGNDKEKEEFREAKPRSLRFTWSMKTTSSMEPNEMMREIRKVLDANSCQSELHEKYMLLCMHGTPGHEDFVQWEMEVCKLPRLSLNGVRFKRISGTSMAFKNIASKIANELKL
Sequence of Mitogen-activated protein kinase kinase kinase 7 (O43318 whole entry, the tested form may be a part): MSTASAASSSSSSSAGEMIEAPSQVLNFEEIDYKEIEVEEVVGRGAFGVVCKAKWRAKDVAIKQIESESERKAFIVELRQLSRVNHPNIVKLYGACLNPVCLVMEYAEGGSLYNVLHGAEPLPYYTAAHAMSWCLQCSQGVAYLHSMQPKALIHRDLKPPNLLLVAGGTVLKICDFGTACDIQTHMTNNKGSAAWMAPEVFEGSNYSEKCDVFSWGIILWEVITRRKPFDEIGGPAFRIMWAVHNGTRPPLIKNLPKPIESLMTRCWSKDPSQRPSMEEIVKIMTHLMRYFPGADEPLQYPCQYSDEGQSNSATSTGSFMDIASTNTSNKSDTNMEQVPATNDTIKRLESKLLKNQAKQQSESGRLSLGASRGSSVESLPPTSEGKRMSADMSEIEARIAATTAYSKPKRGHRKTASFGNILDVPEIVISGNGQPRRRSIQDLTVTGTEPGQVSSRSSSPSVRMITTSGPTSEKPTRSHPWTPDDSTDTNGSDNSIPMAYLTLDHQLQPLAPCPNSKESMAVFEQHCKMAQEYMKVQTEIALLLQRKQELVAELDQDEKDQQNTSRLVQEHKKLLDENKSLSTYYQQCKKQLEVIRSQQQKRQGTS
Sequence of Mitogen-activated protein kinase 14 (Q16539 whole entry): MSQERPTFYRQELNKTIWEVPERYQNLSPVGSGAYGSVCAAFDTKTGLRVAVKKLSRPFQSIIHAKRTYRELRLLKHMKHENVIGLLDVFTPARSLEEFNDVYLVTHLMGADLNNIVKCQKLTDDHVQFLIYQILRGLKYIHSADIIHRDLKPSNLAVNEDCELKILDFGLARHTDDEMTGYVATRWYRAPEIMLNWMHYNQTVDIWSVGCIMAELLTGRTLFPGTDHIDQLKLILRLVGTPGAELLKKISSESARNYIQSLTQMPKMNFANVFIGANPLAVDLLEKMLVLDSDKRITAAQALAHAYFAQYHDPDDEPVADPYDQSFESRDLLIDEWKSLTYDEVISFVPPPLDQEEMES
Sequence of Serine/threonine-protein kinase 38-like (Q9Y2H1 whole entry): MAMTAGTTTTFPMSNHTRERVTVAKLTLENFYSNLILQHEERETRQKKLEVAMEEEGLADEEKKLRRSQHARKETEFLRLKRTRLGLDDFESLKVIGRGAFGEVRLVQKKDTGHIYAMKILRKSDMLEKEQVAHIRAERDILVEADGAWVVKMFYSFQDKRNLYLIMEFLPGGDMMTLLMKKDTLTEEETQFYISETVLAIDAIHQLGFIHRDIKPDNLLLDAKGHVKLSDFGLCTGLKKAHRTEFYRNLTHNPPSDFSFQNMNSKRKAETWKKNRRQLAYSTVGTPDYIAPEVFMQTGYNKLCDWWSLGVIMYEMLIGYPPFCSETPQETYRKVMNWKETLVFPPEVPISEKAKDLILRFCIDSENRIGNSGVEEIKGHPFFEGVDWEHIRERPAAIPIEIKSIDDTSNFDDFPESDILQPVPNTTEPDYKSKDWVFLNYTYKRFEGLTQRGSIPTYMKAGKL
Sequence of Serine/threonine-protein kinase PAK 4 (O96013 whole entry): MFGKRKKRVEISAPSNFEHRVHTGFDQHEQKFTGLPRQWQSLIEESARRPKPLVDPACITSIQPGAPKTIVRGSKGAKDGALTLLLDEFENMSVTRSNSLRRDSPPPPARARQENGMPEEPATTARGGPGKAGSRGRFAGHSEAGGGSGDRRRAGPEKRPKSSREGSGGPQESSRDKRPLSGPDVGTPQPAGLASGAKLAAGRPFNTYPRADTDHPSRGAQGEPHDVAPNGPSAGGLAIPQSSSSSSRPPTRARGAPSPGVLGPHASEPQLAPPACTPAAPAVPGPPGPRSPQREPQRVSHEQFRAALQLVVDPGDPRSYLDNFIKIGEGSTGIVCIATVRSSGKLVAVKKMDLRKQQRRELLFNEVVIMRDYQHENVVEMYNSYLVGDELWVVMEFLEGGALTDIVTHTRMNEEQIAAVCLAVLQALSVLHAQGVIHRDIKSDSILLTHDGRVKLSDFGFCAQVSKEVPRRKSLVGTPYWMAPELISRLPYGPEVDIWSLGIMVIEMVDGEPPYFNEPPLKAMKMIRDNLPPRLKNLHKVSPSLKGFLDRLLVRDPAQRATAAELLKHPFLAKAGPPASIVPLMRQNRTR
Sequence of Serine/threonine-protein kinase pim-1 (P11309 whole entry): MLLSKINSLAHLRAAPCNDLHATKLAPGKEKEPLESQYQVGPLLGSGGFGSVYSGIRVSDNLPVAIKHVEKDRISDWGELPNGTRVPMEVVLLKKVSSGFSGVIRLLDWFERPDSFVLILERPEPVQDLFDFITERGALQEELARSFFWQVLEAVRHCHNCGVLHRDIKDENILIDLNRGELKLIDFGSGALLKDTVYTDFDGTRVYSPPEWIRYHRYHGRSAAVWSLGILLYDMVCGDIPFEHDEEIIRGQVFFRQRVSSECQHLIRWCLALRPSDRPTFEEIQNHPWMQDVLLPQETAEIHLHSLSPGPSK
Sequence of Mitogen-activated protein kinase 12 (P53778 whole entry): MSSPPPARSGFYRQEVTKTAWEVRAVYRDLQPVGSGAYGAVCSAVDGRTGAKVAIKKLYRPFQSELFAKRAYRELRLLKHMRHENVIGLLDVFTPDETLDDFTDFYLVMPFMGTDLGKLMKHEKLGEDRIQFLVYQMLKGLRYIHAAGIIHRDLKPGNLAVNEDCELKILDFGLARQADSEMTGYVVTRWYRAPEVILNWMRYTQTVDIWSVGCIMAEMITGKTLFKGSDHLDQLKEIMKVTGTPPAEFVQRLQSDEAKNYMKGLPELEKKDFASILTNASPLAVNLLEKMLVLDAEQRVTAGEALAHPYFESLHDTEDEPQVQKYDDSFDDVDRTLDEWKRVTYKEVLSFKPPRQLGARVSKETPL
Sequence of Dual specificity mitogen-activated protein kinase kinase 6 (P52564 whole entry): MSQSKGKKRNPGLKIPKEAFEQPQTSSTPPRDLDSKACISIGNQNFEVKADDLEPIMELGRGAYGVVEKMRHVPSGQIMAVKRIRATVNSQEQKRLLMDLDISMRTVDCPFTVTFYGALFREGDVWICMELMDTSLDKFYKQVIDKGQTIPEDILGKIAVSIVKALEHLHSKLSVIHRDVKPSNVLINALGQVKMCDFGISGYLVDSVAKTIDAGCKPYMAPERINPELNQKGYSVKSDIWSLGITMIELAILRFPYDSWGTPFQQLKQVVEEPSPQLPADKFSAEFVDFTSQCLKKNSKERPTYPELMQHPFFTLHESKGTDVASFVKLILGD

**Q.** Which results are given for `CN(C)c1ccc(C(=O)Nc2cccc(NC(=O)COc3ccc4c(=O)ccoc4c3)c2)cc1`?
**A.** IC50 (Aurora kinase B): 1.24 µM; fraction unbound at 5 h, 1 µM [1]: 0.002; CLint scaled [2]: 2260 mL/min/kg; IC50 (CDC7/Cyclin B1): > 10 µM; IC50 [3]: > 10 µM; IC50 [4]: > 10 µM; IC50 [5]: > 10 µM; IC50 [6]: > 10 µM; IC50 [7]: > 10 µM; IC50 [8]: > 10 µM; IC50 [9]: > 10 µM; IC50 [10]: > 10 µM; IC50 [11]: > 10 µM; IC50 [12]: > 10 µM; IC50 [13]: > 10 µM; IC50 [14]: > 10 µM; IC50 (Rhodopsin kinase GRK7): > 10 µM; IC50 [15]: > 10 µM; IC50 [16]: > 10 µM; IC50 [17]: > 10 µM; IC50 [18]: > 10 µM; IC50 [19]: > 10 µM; IC50 [20]: > 10 µM; IC50 [21]: > 10 µM; IC50 [22]: > 10 µM; IC50 [23]: > 10 µM
